# Target: T1, human thyroid receptor beta ligand-binding domain (LBD) (Homo sapiens, UniProt P10828)
# T1 construct: Thyroid receptor beta LBD was added to the plate at a final concentration of 1 nM; purchased Invitrogen
# T1 sequence (P10828 217-461 limits assumed): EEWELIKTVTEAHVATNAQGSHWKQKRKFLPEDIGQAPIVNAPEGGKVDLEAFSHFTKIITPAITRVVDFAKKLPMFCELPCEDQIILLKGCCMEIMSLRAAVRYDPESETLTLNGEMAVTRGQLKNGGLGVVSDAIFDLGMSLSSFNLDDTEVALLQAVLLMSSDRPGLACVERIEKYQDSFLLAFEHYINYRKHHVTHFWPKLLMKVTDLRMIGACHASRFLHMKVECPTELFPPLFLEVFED
# Assay: THR Biochemical Assay (Assay 1): TR-FRET thyroid receptor beta coactivator assay
# Conditions: GST-tagged thyroid receptor beta LBD 1 nM, fluorescein SRC2-2 coactivator peptide 200 nM, 1 hr at rt, TR-FRET ratio 520:495; read-out: Assay 1 (EC50, THR-beta agonist)
# From the text: THR Biochemical Assay (Assay 1)
# The TR-FRET thyroid receptor beta coactivator assay was used with slight, optimized modifications of the manufacturer's protocol (Invitrogen). The assay uses a terbium-labeled anti-GST antibody, a glutathione-S-transferase (GST) tagged human thyroid receptor, beta or alpha, ligand-binding domain (LBD), and a fluorescein labeled SRC2-2 coactivator peptide. The antibody interacts with the LBD, where the agonist also binds, resulting in increased affinity for the SRC2-2 coactivator peptide causing energy transfer […] the acceptor fluorophore and a FRET emission shift from 495 to 520 nm. The energy transfer was detected as an increase in the fluorescence emission of the fluorescein acceptor, and a decrease in the fluorescence emission of the terbium donor. The assay was performed in a 384-well black plate in a final volume of 20 μL. Serial dilution of various test agonists was performed in DMSO (1% final DMSO concentration) and added to the test plate. Thyroid receptor beta LBD was added to the plate at a final concentration of 1 nM, followed by the mixture of the fluorescein labeled SRC2-2 coactivator peptide, and the terbium-labeled anti-GST antibody at final concentrations of 200 nM and 2 nM respectively. The assay was incubated for 1 hr at rt protected from light. The TR-FRET was then measured on a Victor multilabel reader (Perkin Elmer) using an excitation wavelength of 340 nm with emission filters of 495 nm and 520 nm. The assay was quantified by expressing a ratio (520:495) of the intensities, and the resulting activation curves; EC50 values were generated using a sigmoidal dose response (variable slope) equation in GraphPad™ Prism 8.0.
row,SMILES,EC50
1,"O=C(Nc1cc(Cl)c(Oc2ccc3c(c2F)C2(CC2)C(=O)N3)c(Cl)c1)c1noc(=O)[nH]1 [Compound 40, N-(3,5-dichloro-4-((4′-fluoro-2′-oxospiro[cyclopropane-1,3′-indolin]-5′-yl)oxy)phenyl)-5-oxo-4,5-dihydro-1,2,4-oxadiazole-3-carboxamide]",< 0.05 µM
2,"Nc1nn(-c2cc(Cl)c(Oc3ccc4c(c3F)C3(CC3)C(=O)N4)c(Cl)c2)c(=O)[nH]c1=O [Compound 41, 6-amino-2-(3,5-dichloro-4-((4′-fluoro-2′-oxospiro[cyclopropane-1,3′-indolin]-5′-yl)oxy)phenyl)-1,2,4-triazine-3,5(2H,4H)-dione]",< 0.05 µM
3,"Cn1nc(-c2cc(Cl)c(Oc3ccc4c(c3F)C3(CC3)C(=O)N4)c(Cl)c2)c(=O)[nH]c1=O [Compound 42, 6-(3,5-dichloro-4-((4′-fluoro-2′-oxospiro[cyclopropane-1,3′-indolin]-5′-yl)oxy)phenyl)-2-methyl-1,2,4-triazine-3,5(2H,4H)-dione]",< 0.05 µM
4,"Cn1nc(-c2cc(Cl)c(Oc3ccc4c(c3Cl)C3(CC3)C(=O)N4)c(Cl)c2)c(=O)[nH]c1=O [Compound 43, 6-(3,5-dichloro-4-((4′-chloro-2′-oxospiro[cyclopropane-1,3′-indolin]-5′-yl)oxy)phenyl)-2-methyl-1,2,4-triazine-3,5(2H,4H)-dione]",< 0.05 µM
5,"O=C(Nc1cc(Cl)c(Oc2ccc3c(c2)C2(CC2)C(=O)N3)c(C(F)(F)F)c1)c1noc(=O)[nH]1 [Compound 44, N-(3-chloro-4-((2′-oxospiro[cyclopropane-1,3′-indolin]-5′-yl)oxy)-5-(trifluoromethyl)phenyl)-5-oxo-4,5-dihydro-1,2,4-oxadiazole-3-carboxamide]",< 0.05 µM
6,"Nc1nn(-c2cc(Cl)c(Oc3cnc4c(c3)C3(CC3)C(=O)N4)c(Cl)c2)c(=O)[nH]c1=O [Compound 45, 6-amino-2-(3,5-dichloro-4-((2′-oxo-1′,2′-dihydrospiro[cyclopropane-1,3′-pyrrolo[2,3-b]pyridin]-5′-yl)oxy)phenyl)-1,2,4-triazine-3,5(2H,4H)-dione]",0.25 to 1 µM
